Measurements taken from patent US6136992A, “2-alkoxy estradiols and derivatives thereof” (The United States of America as represented by the …, priority 1998, dated 2000).
Where a name gives a salt, the structure may show the parent alone. Read-outs that look alike come from different tables or passages of the source.

Key:
tubulin = assay: Inhibition of tubulin polymerization (turbidimetry at 350 nm); format: biochemical, bovine; settings: for IC50: 26° C., 20 min, read-out: Inhibn of Tubulin Polymn IC50
Protocol: Four instruments were used, and two control reaction mixtures were present in each experiment. […] IC50 values were determined graphically. […]
Inhibition of tubulin polymerization was investigated using electrophoretically homogeneous tubulin from bovine brain.

solid tumors = settings: cited from earlier work
estrogen receptor = biological target: T1, estrogen receptor (Rattus norvegicus, UniProt P06211); assay: Estrogen binding affinity assay (comparative radiometric binding, rat uterine cytosol); settings: for RBA (relative binding affinity): 0° C., estradiol = 100
T1 construct: from tissue; host or cells: rat uterine cytosol
T1 sequence (P06211 1-600): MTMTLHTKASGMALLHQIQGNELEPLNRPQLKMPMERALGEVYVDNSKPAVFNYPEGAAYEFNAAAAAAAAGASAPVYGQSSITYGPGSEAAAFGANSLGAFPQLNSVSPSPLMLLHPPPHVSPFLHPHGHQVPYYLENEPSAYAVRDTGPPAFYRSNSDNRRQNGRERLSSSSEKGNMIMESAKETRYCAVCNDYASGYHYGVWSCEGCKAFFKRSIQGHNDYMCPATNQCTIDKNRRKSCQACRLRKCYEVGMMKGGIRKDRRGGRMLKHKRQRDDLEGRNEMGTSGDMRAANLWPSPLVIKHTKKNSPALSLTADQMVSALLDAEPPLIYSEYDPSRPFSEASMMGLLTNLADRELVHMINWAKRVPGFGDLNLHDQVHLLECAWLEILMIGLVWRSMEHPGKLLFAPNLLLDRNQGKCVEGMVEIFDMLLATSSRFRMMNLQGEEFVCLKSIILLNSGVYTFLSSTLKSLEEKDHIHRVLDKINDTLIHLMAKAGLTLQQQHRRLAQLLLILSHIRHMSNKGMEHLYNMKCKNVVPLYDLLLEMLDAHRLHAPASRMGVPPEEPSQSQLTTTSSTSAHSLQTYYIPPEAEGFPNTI
Protocol: The assay of (11), (12) and (16) were conducted at 0° C. for 20 hours, while those for (1) and (2) were performed at 0° C. for 18 hours.

[1] = tested on: HCT-116 colon cancer cells; assay: NCI in vitro anticancer screen, HCT-116 colon cancer; format: cell-based; settings: Homo sapiens, HCT-116, read-out: cytotoxicity GI50, Colon HCT-116
Text: (§1) The effects of the analogs on cancer cell growth was investigated in the National Cancer Institute (NCI) Developmental Therapeutics Program's in vitro panel of approximately 55 cell lines (Grever et al., Seminars in Oncology 19:622 (1992), Alley et al., Cancer Research 48:589 (1988) and Montes et al., J. National Cancer Institute 83:757 (1991)). Representative results are listed in Table 1 for HOP-62 non-small-cell lung cancer cells, HCT-116 colon cancer cells, SF-539 central nervous system (CNS) cancer cells, UACC-62 melanoma cells, OVCAR ovarian cancer cells, SN12-C renal cancer cells, DU-145 prostate cancer cells, and MDA-MB-435 breast cancer cells.
(§2) ^a The cytotoxicity GI50 values are the concentrations

[2] = tested on: SF-539 central nervous system (CNS) cancer cells; assay: NCI in vitro anticancer screen, SF-539 CNS cancer; format: cell-based; settings: Homo sapiens, read-out: cytotoxicity GI50, CNS SF-539
Text: as §1, §2

[3] = tested on: DU-145 prostate cancer cells; assay: NCI in vitro anticancer screen, DU-145 prostate cancer; format: cell-based; settings: Homo sapiens, DU-145, read-out: cytotoxicity GI50, Prostate DU-145
Text: as §1, §2

[4] = tested on: all human cancer cell lines (approximately 55); assay: NCI in vitro anticancer screen, all cell lines; format: cell-based
Text: as §1
^b Mean graph midpoint for all human cancer cell lines (approximately

[5] = tested on: SN12-C renal cancer cells; assay: NCI in vitro anticancer screen, SN12-C renal cancer; format: cell-based; settings: Homo sapiens, SN12C, read-out: cytotoxicity GI50, Renal SN12-C
Text: as §1, §2

UACC-62 melanoma cells = assay: NCI in vitro anticancer screen, UACC-62 melanoma; format: cell-based; settings: Homo sapiens, UACC-62, read-out: cytotoxicity GI50, Melanoma UACC-62
Text: as §1, §2

[6] = tested on: OVCAR ovarian cancer cells; assay: NCI in vitro anticancer screen, OVCAR ovarian cancer; format: cell-based; settings: Homo sapiens, read-out: cytotoxicity GI50, Ovarian OVCAR
Text: as §1, §2

[7] = tested on: HOP-62 non-small-cell lung cancer cells; assay: NCI in vitro anticancer screen, HOP-62 non-small-cell lung cancer; format: cell-based; settings: Homo sapiens, HOP-62, read-out: cytotoxicity GI50, Lung HOP-62
Text: as §1, §2

[8] = tested on: MDA-MB-435 breast cancer cells; assay: NCI in vitro anticancer screen, MDA-MB-435 breast cancer; format: cell-based; settings: Homo sapiens, MDA-MB-435, read-out: cytotoxicity GI50, Breast MDA-MB-435
Text: The effects of the analogs on cancer cell growth was investigated in the National Cancer Institute (NCI) Developmental Therapeutics Program's in vitro panel of approximately 55 cell lines (Grever et al., Seminars in Oncology 19:622 (1992), Alley et al., Cancer Research 48:589 (1988) and Montes et al., J. National Cancer Institute 83:757 (1991)).

[9] = approximately 55 cell lines, read-out: MGM (mean graph midpoint for all human cancer cell lines), GI50
[10] = read-out: MGM (mean graph midpoint for all human cancer cell lines), GI50

Compound	IC50 (tubulin) [nM]	inhibition of neovascularization and growth of solid tumors in mice (solid tumors)	signs of toxicity at tumor-inhibiting doses (solid tumors; mice)	RBA (relative binding affinity) (estrogen receptor; 18 hours)	inhibition of tubulin polymerization, relative activity in words (tubulin; comparison with 2-methoxy estradiol (1) or 2-ethoxy estradiol (2))	GI50 [1] [nM]	GI50 [2] [µM]	GI50 [3] [nM]	GI50 [4, 9] [µM]	GI50 [5] [µM]	GI50 (UACC-62 melanoma cells) [nM]	GI50 [6] [nM]	GI50 [7] [µM]	GI50 [8] [µM]	GI50 [4, 10] [µM]	GI50 ([4]; read-out: GI50) [µM]	affinity for the estrogen receptor, in words (estrogen receptor)	RBA (relative binding affinity) (estrogen receptor; 20 hours)
COc1cc2c(cc1O)CC[C@@H]1[C@@H]2CC[C@]2(C)[C@@H](O)CC[C@@H]12 [Compound 1, 2-methoxy estradiol, reference compound]	2900	potent inhibitor of neovascularization of solid tumors and inhibits their growth	no apparent signs of toxicity	0.245	–	–	–	–	–	–	–	–	–	–	–	–	–	–
CCOc1cc2c(cc1O)CC[C@@H]1[C@@H]2CC[C@]2(C)[C@@H](O)CC[C@@H]12 [Compound 2, 2-ethoxy estra-1,3,5(10)-trien-3,17β-diol]	910	–	–	–	over three times more active than 2-methoxy estradiol (1)	–	–	–	–	–	–	–	–	–	–	–	–	–
C[C@]12CC[C@@H]3c4cc(OCC(F)(F)F)c(O)cc4CC[C@H]3[C@@H]1CC[C@@H]2O [Compound 3, 2-(2',2',2'-trifluoroethoxy)estra-3,17β-diol]	1700	–	–	–	–	–	–	–	–	–	–	–	–	–	–	–	–	–
CC(=O)Oc1cc2c(cc1OCC(F)(F)F)[C@H]1CC[C@]3(C)[C@@H](OC(C)=O)CC[C@H]3[C@@H]1CC2=O [Compound 6, 2-(2',2',2'-Trifluoroethoxy)-3,17β-Diacetyloxy-Estra-6-Oxo-1,3,5(10)-Triene]	6000	–	–	–	–	3710	5.11	15000	9.77	23.5	3330	3520	8.7	26.5	–	–	–	–
CCOc1cc2c(cc1OC(C)=O)C(=O)C[C@@H]1[C@@H]2CC[C@]2(C)[C@@H](OC(C)=O)CC[C@@H]12 [Compound 7, 2-Ethoxy-3,17β-Diacetoxy-6-Oxoestra-1,3,5(10)-triene]	> 40000	–	–	–	–	21100	22.6	19800	19.5	19.8	17700	23700	20	18.4	–	–	–	–
CCOc1cc2c(cc1O)C(=O)C[C@@H]1[C@@H]2CC[C@]2(C)[C@@H](O)CC[C@@H]12 [Compound 10, 2-Ethoxy-6-Oxoestra-1,3,5(10)-Triene-3,17β-Diol]	4800	–	–	–	–	20	0.71	170	–	0.18	10	630	0.03	< 0.01	0.13	–	–	–
CCOc1cc2c(cc1O)C(=NO)C[C@@H]1[C@@H]2CC[C@]2(C)[C@@H](O)CC[C@@H]12 [Compound 11, 2-Ethoxy-6-Hydroximinoestra-1,3,5(10)-Triene-3,17β-Diol]	620	–	–	–	–	< 10	–	< 10	–	< 0.01	< 10	< 10	< 0.01	< 0.01	0.04	< 0.01	no affinity for the estrogen receptor	< 0.001
CCOc1cc2c(cc1O)C(=NN)C[C@@H]1[C@@H]2CC[C@]2(C)[C@@H](O)CC[C@@H]12 [Compound 13, 2-Ethoxy-6-Hydrazone-estra-1,3,5(10)-Triene-3,17β-Diol]	15000	–	–	–	–	2120	2.76	17000	4.17	16.8	880	5430	1.18	6.5	–	–	–	–
CCOc1cc2c(cc1O)[C@@H](O)C[C@@H]1[C@@H]2CC[C@]2(C)[C@@H](O)CC[C@@H]12 [Compound 14, 2-Ethoxyestra-1,3,5(10)-Triene-3,6α,17β-Triol]	2500	–	–	–	–	350	–	710	0.83	0.66	280	350	–	5.39	–	–	–	–
CCOc1cc2c(cc1O)C(=NNS(=O)(=O)c1ccc(C)cc1)C[C@@H]1[C@@H]2CC[C@]2(C)[C@@H](O)CC[C@@H]12 [Compound 15, 2-Ethoxy-6-Tosylhydrazone-Estra-1,3,5(10)-Triene-3,17β-Diol]	> 40000	–	–	–	–	6670	3.45	14900	6.16	12.1	–	3180	5.14	–	–	–	–	–
CCOc1cc2c(cc1O)C(=NOC)C[C@@H]1[C@@H]2CC[C@]2(C)[C@@H](O)CC[C@@H]12 [Compound 16, 2-Ethoxy-6-(O-Methyl)hydroximino-Estra-1,3,5(10)-Triene-3,17β-Diol]	750	–	–	–	–	< 10	–	320	–	0.26	< 10	< 10	< 0.01	0.02	0.24	–	no affinity for the estrogen receptor	< 0.001
CCOc1cc2c(cc1O)CC[C@@H]1[C@@H]2CC[C@]2(C)C(N)CC[C@@H]12 (stereo partly drawn) [Compound 20, 2-Ethoxy-3-Hydroxy-17-α/β-Aminoestra-1,3,5(10)-Triene Hydrochloride]	> 40000	–	–	–	–	3150	3.99	1930	3.31	5.24	3610	1250	10.9	1.74	–	–	–	–
